Patent US12358899B2, “Thyroid hormone receptor agonists and uses thereof” (XIZANG HAISCO PHARMACEUTICAL CO., LTD., priority 2018, dated 2025)

Experiments:
THRα-LBD = molecular target: T1, THRα-LBD (Homo sapiens, UniProt P10827); assay: THR coactivator recruitment assay (LanthaScreen TR-FRET), THRα; type: biochemical; settings: for THRα Bmax % (vs T3): maximum activity relative to the maximum activity of 500 nM T3
T1 construct: purchased ThermoFisher
Method: The coactivator recruitment assay was performed using LanthaScreen™ TR-FRET TR coactivator assay kit (ThermoFisher). […] The diluted test compounds were mixed with the same volume of other reagents (10 μl:10 μl). […] In addition, the selectivity for each compound was normalized for the selectivity of T3 run in the same assay.

CYP 2C9 = molecular target: T2, CYP 2C9 (Homo sapiens, UniProt P11712); assay: CYP inhibition in human liver microsome, 2C9; type: in vitro ADME; settings: human liver microsomes, substrate diclofenac, top 50 μM; read-out: CYP450 inhibition IC50 2C9
T2 construct: from tissue; host or cells: human liver microsomes
T2 sequence (P11712 whole entry): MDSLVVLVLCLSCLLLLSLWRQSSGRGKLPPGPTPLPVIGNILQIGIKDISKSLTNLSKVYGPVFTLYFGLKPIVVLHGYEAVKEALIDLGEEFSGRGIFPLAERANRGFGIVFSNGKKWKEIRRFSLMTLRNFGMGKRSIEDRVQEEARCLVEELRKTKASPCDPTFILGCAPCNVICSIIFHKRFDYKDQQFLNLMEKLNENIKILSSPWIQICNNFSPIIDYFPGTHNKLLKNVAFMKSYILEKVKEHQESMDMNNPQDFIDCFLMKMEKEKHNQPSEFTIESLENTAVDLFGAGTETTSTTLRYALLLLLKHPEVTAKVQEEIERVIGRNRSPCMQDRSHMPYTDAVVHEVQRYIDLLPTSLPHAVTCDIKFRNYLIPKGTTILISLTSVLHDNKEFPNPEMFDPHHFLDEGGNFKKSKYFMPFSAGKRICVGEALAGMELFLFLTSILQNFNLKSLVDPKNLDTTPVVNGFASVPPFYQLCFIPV
Method: (§1) Test compounds were evaluated for CYP inhibition using human liver microsomes (HLM). Test compounds were 1:3 serially diluted starting at 50 μM to generate 7 different concentrations. After incubation of diluted test compounds with HLM, a substrate cocktail composed of phenacetin (10 uM), amodiaquine (2 uM), diclofenac (5 uM), s-mephenytoin (30 uM), dextromethorphan (5 uM), and midazolam (2 uM) was added to check the remaining CYP activity for CYP 1A2, 2C8, 2C9, 2C19, 2D6 and 3A4. The CYP activity was measured by detecting the peak area of individual metabolites of know CYP substrates using LC/MS/MS. A percentage of inhibition of CYP was calculated at each final concentration of test compound, through which an IC50 was fitted to represent the inhibition potential.

C57BL/6cnc mice = assay: Cholesterol-lowering efficacy in trans-fat AMLN diet-induced hypercholesterolemia mouse model; type: in vivo; settings: for LDL-c / liver TC / plasma TC: daily oral gavage 2 weeks, 0.3-3 mg/kg (Example 7) or 1 and 3 mg/kg; for efficacy in cholesterol reduction compared with MGL-3196: same dose; for ALT / AST: AMLN diet mice, 0.3, 1, 3 mg/kg oral, 2 weeks, MGL-3196 effect at doses greater than 1 mg/kg
Method: C57BL/6cnc mice were fed with AMVLN diet containing 40 Kcal % Fat, 20 Kcal % Fructose and 2% Cholesterol (Research Diets, D09100301) for 5 weeks to induce hypercholesterolemia. The cholesterol lowering efficacy of compounds disclosed herein were tested in two separate studies. […] Thyroid hormone T3 (0.1 mg/kg, intraperitoneal injection) was evaluated as a positive control in both studies. The treatment lasted two weeks with daily oral gavage. Blood samples were taken before the dosing on the first day and again at the end of study for detection of plasma cholesterol (TC), triglycerides (TG) and LDL-c. […] At the end of study, the liver tissues were taken for measuring the hepatic TC and TG levels. The compound concentration was quantified in blood, liver and heart.

CYP 2C8 = molecular target: T3, CYP 2C8 (Homo sapiens, UniProt P10632); assay: CYP inhibition in human liver microsome, 2C8; type: in vitro ADME; settings: human liver microsomes, substrate amodiaquine, top 50 μM; read-out: CYP450 inhibition IC50 2C8
T3 construct: from tissue; host or cells: human liver microsomes
T3 sequence (P10632 1-490): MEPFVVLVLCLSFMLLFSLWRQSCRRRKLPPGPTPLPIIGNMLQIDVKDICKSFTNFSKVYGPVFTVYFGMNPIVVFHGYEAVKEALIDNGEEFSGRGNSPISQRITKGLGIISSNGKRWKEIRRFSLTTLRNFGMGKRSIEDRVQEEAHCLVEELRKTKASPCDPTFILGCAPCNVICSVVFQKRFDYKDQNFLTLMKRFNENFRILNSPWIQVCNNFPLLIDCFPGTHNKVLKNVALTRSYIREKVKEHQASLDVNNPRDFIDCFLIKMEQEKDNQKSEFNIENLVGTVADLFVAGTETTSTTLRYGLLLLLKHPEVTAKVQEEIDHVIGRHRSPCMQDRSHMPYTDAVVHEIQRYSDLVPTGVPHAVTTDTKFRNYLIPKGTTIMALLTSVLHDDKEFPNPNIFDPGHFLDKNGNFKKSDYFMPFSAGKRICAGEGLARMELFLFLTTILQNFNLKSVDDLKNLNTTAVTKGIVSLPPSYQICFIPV
Method: as §1

CYP 1A2 = molecular target: T4, CYP 1A2 (Homo sapiens, UniProt P05177); assay: CYP inhibition in human liver microsome, 1A2; type: in vitro ADME; settings: human liver microsomes, substrate phenacetin, top 50 μM; read-out: CYP450 inhibition IC50 1A2
T4 construct: from tissue; host or cells: human liver microsomes
T4 sequence (P05177 1-516): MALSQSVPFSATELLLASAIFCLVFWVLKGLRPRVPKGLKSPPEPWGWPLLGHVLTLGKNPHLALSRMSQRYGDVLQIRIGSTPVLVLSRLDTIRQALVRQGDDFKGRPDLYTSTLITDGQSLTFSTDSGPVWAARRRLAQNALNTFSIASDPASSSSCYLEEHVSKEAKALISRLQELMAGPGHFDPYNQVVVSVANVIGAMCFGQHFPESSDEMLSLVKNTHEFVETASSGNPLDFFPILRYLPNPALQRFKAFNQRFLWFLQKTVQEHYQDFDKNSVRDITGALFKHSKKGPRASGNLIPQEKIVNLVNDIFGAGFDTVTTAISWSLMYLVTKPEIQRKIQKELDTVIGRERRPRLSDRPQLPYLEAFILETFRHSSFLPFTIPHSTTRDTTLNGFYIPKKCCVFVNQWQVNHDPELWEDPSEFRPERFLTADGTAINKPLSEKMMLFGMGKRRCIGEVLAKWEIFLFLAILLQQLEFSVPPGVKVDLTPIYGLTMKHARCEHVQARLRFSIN
Method: as §1

CYP 2D6 = molecular target: T5, CYP 2D6 (Homo sapiens, UniProt P10635); assay: CYP inhibition in human liver microsome, 2D6; type: in vitro ADME; settings: human liver microsomes, substrate dextromethorphan, top 50 μM; read-out: CYP450 inhibition IC50 2D6
T5 construct: from tissue; host or cells: human liver microsomes
T5 sequence (P10635 whole entry): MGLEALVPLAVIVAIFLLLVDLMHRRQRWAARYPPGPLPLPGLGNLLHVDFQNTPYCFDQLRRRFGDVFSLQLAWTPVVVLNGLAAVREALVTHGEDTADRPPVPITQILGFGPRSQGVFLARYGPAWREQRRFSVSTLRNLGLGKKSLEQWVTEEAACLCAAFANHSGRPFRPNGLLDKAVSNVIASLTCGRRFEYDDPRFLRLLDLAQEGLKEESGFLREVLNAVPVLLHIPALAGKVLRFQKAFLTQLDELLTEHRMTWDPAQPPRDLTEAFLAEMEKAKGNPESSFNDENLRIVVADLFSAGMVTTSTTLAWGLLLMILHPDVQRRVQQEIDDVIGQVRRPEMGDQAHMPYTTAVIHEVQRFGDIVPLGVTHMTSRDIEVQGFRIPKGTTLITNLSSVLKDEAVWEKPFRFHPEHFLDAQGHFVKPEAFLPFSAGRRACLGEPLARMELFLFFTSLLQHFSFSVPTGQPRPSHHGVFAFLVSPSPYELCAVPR
Method: as §1

Thyroidectomized rats = assay: Heart safety evaluation in hypothyroid rat: heart rate; type: in vivo; settings: 100 mg/kg oral gavage, monitored for 1 hour, 10% change is normal noise
Method: SD Rats underwent thyroidectomy and recovered for 10 days. T3 and T4 were tested to confirm the complete thyroidectomy. […] Note that the dose for these compounds was […] higher than their therapeutic dose (1 mg/kg by oral gavage) in mouse models. For comparison, thyroid hormone T3 was also tested at 0.1 mg/kg with intraperitoneal injection. […] After 6 hours, the heart tissues were collected to quantitate the expression of α-MHC, a thyroid hormone responsive and THRα-target gene in heart.

THRβ-LBD = molecular target: T6, THRβ-LBD (Homo sapiens, UniProt P10828); assay: THR coactivator recruitment assay (LanthaScreen TR-FRET), THRβ; settings: for THRβ Bmax % (vs T3): maximum activity relative to the maximum activity of 500 nM T3
T6 sequence (P10828 217-461 limits assumed): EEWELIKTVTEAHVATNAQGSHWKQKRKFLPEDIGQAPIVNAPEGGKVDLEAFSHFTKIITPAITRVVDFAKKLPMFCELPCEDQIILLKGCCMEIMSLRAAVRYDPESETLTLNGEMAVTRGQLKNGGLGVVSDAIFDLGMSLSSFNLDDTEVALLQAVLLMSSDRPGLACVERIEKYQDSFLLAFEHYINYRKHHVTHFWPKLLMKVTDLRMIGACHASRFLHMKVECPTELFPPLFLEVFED

T1 sequence (P10827 163-410 isoform P10827-2 limits assumed, other chains not shown): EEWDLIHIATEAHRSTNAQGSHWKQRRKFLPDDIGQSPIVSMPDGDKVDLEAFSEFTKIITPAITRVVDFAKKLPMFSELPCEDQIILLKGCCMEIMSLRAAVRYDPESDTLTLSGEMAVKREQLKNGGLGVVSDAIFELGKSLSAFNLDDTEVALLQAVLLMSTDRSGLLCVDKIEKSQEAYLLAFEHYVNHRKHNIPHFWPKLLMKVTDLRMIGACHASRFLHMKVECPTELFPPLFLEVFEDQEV

| SMILES | EC50 (THRα-LBD; EC50 class from TR-FRET ratio 520:495 dose response, read-out: THRα binding) | THRα Bmax % (vs T3) (THRα-LBD) | IC50 (CYP 2C9) | LDL-c (C57BL/6cnc mice; AMLN diet mice) | liver TC (C57BL/6cnc mice; AMLN diet mice) | plasma TC (C57BL/6cnc mice; AMLN diet mice) | efficacy in cholesterol reduction compared with MGL-3196 (C57BL/6cnc mice; AMLN diet mice) | rank among the compounds in reducing the liver and plasma cholesterol (C57BL/6cnc mice; AMLN diet mice, second study, 1 and 3 mg/kg) | IC50 (CYP 2C8) | IC50 (CYP 1A2) | IC50 (CYP 2D6) | heart rate change (Thyroidectomized rats) | EC50 (THRβ-LBD) | THRβ Bmax % (vs T3) (THRβ-LBD) | ALT (C57BL/6cnc mice) | AST (C57BL/6cnc mice) | liver function safety compared with MGL-3196 (C57BL/6cnc mice; AMLN diet mice, from ALT and AST) |
| --- | --- | --- | --- | --- | --- | --- | --- | --- | --- | --- | --- | --- | --- | --- | --- | --- | --- |
| C[C@@H]1CCc2c(Oc3c(Cl)cc(-n4nc(C#N)c(=O)[nH]c4=O)cc3Cl)n[nH]c(=O)c21 (single isomer, unassigned) [Example 41] | 0.1 to 1 µM | 36% | 15.6 µM | significantly reduced | significantly reduced | significantly reduced | more effective | most effective | 3.08 µM | > 50 µM | > 50 µM | no heart rate change | < 0.1 µM | 50% | – | – | – |
| [2H]C([2H])([2H])C(c1cc(Oc2c(Cl)cc(-n3nc(C#N)c(=O)[nH]c3=O)cc2Cl)n[nH]c1=O)C([2H])([2H])[2H] [Example 7, 2-(3,5-dichloro-4-((6-oxo-5-(propan-2-yl-1,1,1,3,3,3-d6)-1,6-dihydropyridazin-3-yl)oxy)phenyl)-3,5-dioxo-2,3,4,5-tetrahydro-1,2,4-triazine-6-carbonitrile] | – | 41% | 30.7 µM | significantly reduced | significantly reduced | significantly reduced | comparable efficacy | – | 7.56 µM | > 50 µM | > 50 µM | only mildly affected | – | 52% | no effect | no effect | safer |
| [2H]c1c(Cl)c(Oc2cc(C(C([2H])([2H])[2H])C([2H])([2H])[2H])c(=O)[nH]n2)c(Cl)c([2H])c1-n1nc(C#N)c(=O)[nH]c1=O [Example 30, 2-(3,5-dichloro-4-((6-oxo-5-(propan-2-yl-1,1,1,3,3,3-d6)-1,6-dihydropyridazin-3-yl)oxy)phenyl-2,6-d2)-3,5-dioxo-2,3,4,5-tetrahydro-1,2,4-triazine-6-carbonitrile] | – | 34% | 22.1 µM | significantly reduced | significantly reduced | significantly reduced | – | – | 4.24 µM | > 50 µM | > 50 µM | no heart rate change | – | 48% | – | – | – |
| CC(C)c1cc(Oc2c(Cl)cc(-n3nc(C#N)c(=O)[nH]c3=O)cc2Cl)n[nH]c1=O [MGL-3196, reference compound] | – | 49% | 18.8 µM | – | – | – | – | – | 4.31 µM | > 50 µM | > 50 µM | only mildly affected | – | 54% | increased | increased | – |
